{"source": "ChEMBL document CHEMBL1143508", "about": "“Design, synthesis, and structure-activity relationships of tetrahydroquinoline-based farnesyltransferase inhibitors” (Bioorg Med Chem Lett, 2005)", "key": {"[1]": {"molecular_target": "Protein farnesyltransferase (Homo sapiens, UniProt P49354+P49356)", "experiment": "Inhibition of human farnesyltransferase", "assay_type": "protein-complex assay"}, "[2]": {"molecular_target": "T1, Protein farnesyltransferase (Rattus norvegicus) (UniProt Q04631+Q02293)", "experiment": "Percentage cellular reversion of H-ras transformed Rat-1 cells at 100 nM", "assay_type": "functional, cell-based"}, "[3]": {"molecular_target": "T1, Protein farnesyltransferase (Rattus norvegicus)", "experiment": "Percentage cellular reversion in H-ras transformed Rat-1 cells at 1 uM", "assay_type": "functional, cell-based"}, "[4]": {"molecular_target": "Protein farnesyltransferase (Rattus norvegicus, UniProt Q02293+Q04631)", "experiment": "Inhibition of cellular reversion in H-ras transformed Rat-1 cells", "assay_type": "functional, cell-based"}, "[5]": {"molecular_target": "T1, Protein farnesyltransferase (Rattus norvegicus)", "experiment": "Percentage cellular reversion in H-ras transformed Rat-1 cells at 10 uM", "assay_type": "functional, cell-based"}}}
{"compound": "C=C(C)CN(C1Cc2cc(C#N)ccc2N(Cc2cncn2C)C1)S(=O)(=O)c1ccccc1", "note": "(stereo not given)", "values": [{"measurement": "IC50", "setting": "[1]", "result": 0.9, "unit": "nM"}, {"measurement": "Cellular reversion", "setting": "[2]", "result": 95, "unit": "%"}]}
{"compound": "CN(C1Cc2cc(C#N)ccc2N(Cc2cncn2C)C1)S(=O)(=O)c1cnn(C)c1", "note": "(stereo not given)", "values": [{"measurement": "IC50", "setting": "[1]", "result": 7.6, "unit": "nM"}, {"measurement": "Cellular reversion", "setting": "[2]", "result": 0, "unit": "%"}, {"measurement": "Cellular reversion", "setting": "[3]", "result": 25, "unit": "%"}]}
{"compound": "CN(C1Cc2cc(C#N)ccc2N(Cc2cncn2C)C1)S(=O)(=O)c1ccccn1", "note": "(stereo not given)", "values": [{"measurement": "IC50", "setting": "[1]", "result": 3.1, "unit": "nM"}, {"measurement": "Cellular reversion", "setting": "[2]", "result": 0, "unit": "%"}, {"measurement": "Cellular reversion", "setting": "[3]", "result": 85, "unit": "%"}]}
{"compound": "Cn1cncc1CN1CC(N(Cc2ccccc2)S(C)(=O)=O)Cc2cc(C#N)ccc21", "note": "(stereo not given)", "values": [{"measurement": "IC50", "setting": "[1]", "result": 2.8, "unit": "nM"}, {"measurement": "Cellular reversion", "setting": "[2]", "result": 0, "unit": "%"}, {"measurement": "Cellular reversion", "setting": "[3]", "result": 85, "unit": "%"}]}
{"compound": "Cn1cc(S(=O)(=O)N(Cc2ccsc2)C2Cc3cc(C#N)ccc3N(Cc3cncn3C)C2)cn1", "note": "(stereo not given)", "values": [{"measurement": "Cellular reversion", "setting": "[2]", "result": 95, "unit": "%"}]}
{"compound": "Cn1cncc1CN1CC(N(CC(=O)OC(C)(C)C)S(=O)(=O)c2cccnc2)Cc2cc(C#N)ccc21", "note": "(stereo not given)", "values": [{"measurement": "IC50", "setting": "[4]", "result": 225, "unit": "nM"}, {"measurement": "IC50", "setting": "[1]", "result": 3.9, "unit": "nM"}, {"measurement": "Cellular reversion", "setting": "[2]", "result": 30, "unit": "%"}]}
{"compound": "C=C(C)CN(C1Cc2cc(C#N)ccc2N(Cc2cncn2C)C1)S(=O)(=O)c1cn(C)cn1", "note": "(stereo not given)", "values": [{"measurement": "IC50", "setting": "[4]", "result": 50, "unit": "nM"}, {"measurement": "IC50", "setting": "[1]", "result": 0.3, "unit": "nM"}, {"measurement": "Cellular reversion", "setting": "[2]", "result": 80, "unit": "%"}]}
{"compound": "Cn1cncc1CN1CC(N(CCc2ccccc2)S(=O)(=O)c2ccccc2)Cc2cc(C#N)ccc21", "note": "(stereo not given)", "values": [{"measurement": "IC50", "setting": "[1]", "result": "> 5000", "unit": "nM"}, {"measurement": "Cellular reversion", "setting": "[2]", "result": 0, "unit": "%"}]}
{"compound": "Cn1cncc1CN1CC(N(CC(=O)OC(C)(C)C)S(=O)(=O)c2ccccn2)Cc2cc(C#N)ccc21", "note": "(stereo not given)", "values": [{"measurement": "IC50", "setting": "[4]", "result": 10, "unit": "nM"}, {"measurement": "Cellular reversion", "setting": "[2]", "result": 85, "unit": "%"}]}
{"compound": "Cn1cncc1CN1CC(NS(=O)(=O)c2ccccc2)Cc2cc(C#N)ccc21", "note": "(stereo not given)", "values": [{"measurement": "Cellular reversion", "setting": "[5]", "result": 30, "unit": "%"}, {"measurement": "IC50", "setting": "[1]", "result": 10, "unit": "nM"}, {"measurement": "Cellular reversion", "setting": "[2]", "result": 0, "unit": "%"}]}
{"compound": "CN(C1Cc2cc(C#N)ccc2N(Cc2cncn2C)C1)S(=O)(=O)c1cccnc1", "note": "(stereo not given)", "values": [{"measurement": "IC50", "setting": "[1]", "result": 17, "unit": "nM"}, {"measurement": "Cellular reversion", "setting": "[2]", "result": 0, "unit": "%"}, {"measurement": "Cellular reversion", "setting": "[3]", "result": 10, "unit": "%"}]}
{"compound": "Cn1cncc1CN1CC(N(Cc2ccsc2)S(=O)(=O)c2cccnc2)Cc2cc(C#N)ccc21", "note": "(stereo not given)", "values": [{"measurement": "IC50", "setting": "[1]", "result": 0.9, "unit": "nM"}, {"measurement": "Cellular reversion", "setting": "[2]", "result": 85, "unit": "%"}]}
{"compound": "CN(C1Cc2cc(C#N)ccc2N(Cc2cncn2C)C1)S(=O)(=O)c1ccccc1", "note": "(stereo not given)", "values": [{"measurement": "IC50", "setting": "[1]", "result": 3.5, "unit": "nM"}, {"measurement": "Cellular reversion", "setting": "[2]", "result": 45, "unit": "%"}]}
{"compound": "Cn1cncc1CN1CC(N(CC(=O)OC(C)(C)C)S(=O)(=O)c2ccccc2)Cc2cc(C#N)ccc21", "note": "(stereo not given)", "values": [{"measurement": "IC50", "setting": "[1]", "result": 4, "unit": "nM"}, {"measurement": "Cellular reversion", "setting": "[2]", "result": 75, "unit": "%"}]}
{"compound": "Cn1cncc1CN1CC(N(CC2CCCCC2)S(=O)(=O)c2ccccc2)Cc2cc(C#N)ccc21", "note": "(stereo not given)", "values": [{"measurement": "IC50", "setting": "[1]", "result": 48, "unit": "nM"}, {"measurement": "Cellular reversion", "setting": "[2]", "result": 0, "unit": "%"}, {"measurement": "Cellular reversion", "setting": "[3]", "result": 90, "unit": "%"}]}
{"compound": "Cn1cncc1CN1CC(N(Cc2ccsc2)S(=O)(=O)c2ccccn2)Cc2cc(C#N)ccc21", "note": "(stereo not given)", "values": [{"measurement": "IC50", "setting": "[4]", "result": 13, "unit": "nM"}, {"measurement": "Cellular reversion", "setting": "[2]", "result": 95, "unit": "%"}]}
{"compound": "Cn1cnc(S(=O)(=O)N(CC(=O)OC(C)(C)C)C2Cc3cc(C#N)ccc3N(Cc3cncn3C)C2)c1", "note": "(stereo not given)", "values": [{"measurement": "IC50", "setting": "[4]", "result": 30, "unit": "nM"}, {"measurement": "IC50", "setting": "[1]", "result": 0.6, "unit": "nM"}, {"measurement": "Cellular reversion", "setting": "[2]", "result": 90, "unit": "%"}]}
{"compound": "Cn1cnc(S(=O)(=O)N(Cc2ccccc2)C2Cc3cc(C#N)ccc3N(Cc3cncn3C)C2)c1", "note": "(stereo not given)", "values": [{"measurement": "IC50", "setting": "[1]", "result": 1.1, "unit": "nM"}, {"measurement": "Cellular reversion", "setting": "[2]", "result": 75, "unit": "%"}]}
{"compound": "C=C(C)CN(C1Cc2cc(C#N)ccc2N(Cc2cncn2C)C1)S(=O)(=O)c1cccnc1", "note": "(stereo not given)", "values": [{"measurement": "IC50", "setting": "[4]", "result": 100, "unit": "nM"}, {"measurement": "IC50", "setting": "[1]", "result": 1.2, "unit": "nM"}, {"measurement": "Cellular reversion", "setting": "[2]", "result": 70, "unit": "%"}]}
{"compound": "Cn1cncc1CN1C[C@@H](N(Cc2ccsc2)S(=O)(=O)c2ccccc2)Cc2cc(C#N)ccc21", "values": [{"measurement": "IC50", "setting": "[1]", "result": 1.1, "unit": "nM"}, {"measurement": "Cellular reversion", "setting": "[2]", "result": 85, "unit": "%"}]}
{"compound": "Cn1cc(S(=O)(=O)N(Cc2ccccc2)C2Cc3cc(C#N)ccc3N(Cc3cncn3C)C2)cn1", "note": "(stereo not given)", "values": [{"measurement": "IC50", "setting": "[1]", "result": 4.6, "unit": "nM"}, {"measurement": "Cellular reversion", "setting": "[2]", "result": 75, "unit": "%"}]}
{"compound": "Cn1cncc1CN1CC(N(Cc2ccccc2)S(=O)(=O)c2ccccc2)Cc2cc(C#N)ccc21", "note": "(stereo not given)", "values": [{"measurement": "IC50", "setting": "[1]", "result": 3, "unit": "nM"}, {"measurement": "Cellular reversion", "setting": "[2]", "result": 85, "unit": "%"}]}
{"compound": "C=C(C)CN(C1Cc2cc(C#N)ccc2N(Cc2cncn2C)C1)S(=O)(=O)c1ccccn1", "note": "(stereo not given)", "values": [{"measurement": "IC50", "setting": "[4]", "result": 60, "unit": "nM"}, {"measurement": "IC50", "setting": "[1]", "result": 0.9, "unit": "nM"}, {"measurement": "Cellular reversion", "setting": "[2]", "result": 85, "unit": "%"}]}
{"compound": "Cn1cncc1CN1CC(N(Cc2ccsc2)S(=O)(=O)c2ccccc2)Cc2cc(C#N)ccc21", "note": "(racemic)", "values": [{"measurement": "IC50", "setting": "[1]", "result": 2.5, "unit": "nM"}, {"measurement": "Cellular reversion", "setting": "[2]", "result": 90, "unit": "%"}]}
{"compound": "Cn1cncc1CN1C[C@H](N(Cc2ccsc2)S(=O)(=O)c2ccccc2)Cc2cc(C#N)ccc21", "values": [{"measurement": "IC50", "setting": "[1]", "result": 2.8, "unit": "nM"}, {"measurement": "Cellular reversion", "setting": "[2]", "result": 80, "unit": "%"}]}
{"compound": "C=C(C)CN(C1Cc2cc(C#N)ccc2N(Cc2cncn2C)C1)S(C)(=O)=O", "note": "(stereo not given)", "values": [{"measurement": "IC50", "setting": "[4]", "result": 8, "unit": "nM"}, {"measurement": "IC50", "setting": "[1]", "result": 0.8, "unit": "nM"}, {"measurement": "Cellular reversion", "setting": "[2]", "result": 90, "unit": "%"}]}
{"compound": "Cn1cnc(S(=O)(=O)N(Cc2ccsc2)C2Cc3cc(C#N)ccc3N(Cc3cncn3C)C2)c1", "note": "(stereo not given)", "values": [{"measurement": "Cellular reversion", "setting": "[2]", "result": 65, "unit": "%"}]}
{"compound": "Cn1cncc1CN1CC(N(Cc2ccccc2)S(=O)(=O)c2cccnc2)Cc2cc(C#N)ccc21", "note": "(stereo not given)", "values": [{"measurement": "IC50", "setting": "[4]", "result": 70, "unit": "nM"}, {"measurement": "IC50", "setting": "[1]", "result": 0.9, "unit": "nM"}, {"measurement": "Cellular reversion", "setting": "[2]", "result": 85, "unit": "%"}]}
{"compound": "Cn1cncc1CN1CC(N(Cc2ccccc2)S(=O)(=O)c2ccccn2)Cc2cc(C#N)ccc21", "note": "(stereo not given)", "values": [{"measurement": "IC50", "setting": "[4]", "result": "< 20", "unit": "nM"}, {"measurement": "IC50", "setting": "[1]", "result": 2.6, "unit": "nM"}, {"measurement": "Cellular reversion", "setting": "[2]", "result": 90, "unit": "%"}]}
